Measurements published in ChEMBL document CHEMBL5543155, “Design, Synthesis, and Biological Evaluation of β-Trifluoroethoxydimethyl Selenides as Potent Antiosteoporosis Agents” (J Med Chem, 2024).
pKd: −log10 of the molar value. The source made the active and inactive calls. No cut-off for these calls is given here.

Legend:
[1] = test system: RAW264.7; experiment: Cytotoxicity against mouse RAW264.7 cells assessed as cell destruction at 5 uM incubated for 48 hrs by MTT assay; format: toxicity, cell-based; conditions: raw264.7, 48 h
[2] = test system: BMMC; experiment: Anti-osteoclastogenesis activity in M-CSF/RANKL-induced C57BL/6 mouse BMMC cells assessed as prevention of osteoclasts precursor differentiation at 5 uM measured on day 1 to 3 by TRAP-staining based light microscopic analysis; format: functional, cell-based; conditions: time 1-3 day
[3] = target: T1, Tumor necrosis factor ligand superfamily member 11 (Mus musculus) (UniProt O35235); experiment: Binding affinity to mouse RANKL assessed as increase in resonance units measured upto 240 mins by SPR analysis; conditions: dose 15.63-500 µM
T1 sequence (whole entry): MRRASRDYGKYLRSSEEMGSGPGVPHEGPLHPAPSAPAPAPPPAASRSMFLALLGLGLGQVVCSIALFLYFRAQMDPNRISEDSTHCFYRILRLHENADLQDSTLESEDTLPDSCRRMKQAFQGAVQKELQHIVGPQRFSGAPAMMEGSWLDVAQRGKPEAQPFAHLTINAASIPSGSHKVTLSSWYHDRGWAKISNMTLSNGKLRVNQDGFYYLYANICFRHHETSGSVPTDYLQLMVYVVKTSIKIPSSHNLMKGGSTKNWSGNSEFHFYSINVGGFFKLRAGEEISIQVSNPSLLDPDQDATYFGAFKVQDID

[4] = test system: Mus musculus; experiment: Anti-osteoporosis activity in ovariectomized C57BL/6 mouse assessed as reduction in bone loss at 10 mg/kg, ip administered every other day for 8 weeks by H and E staining based analysis; format: functional, organism-based
[5] = test system: BMMC; experiment: Anti-osteoclastogenesis activity in M-CSF/RANKL-induced C57BL/6 mouse BMMC cells assessed as downregulation of DC-STAMP gene expression incubated for 5 days by qRT-PCR analysis; format: functional, cell-based; conditions: dose 0-10 µM, time 5.0 day
[6] = target: MAP kinase p38 (Mus musculus) (UniProt P47811+O08911+Q9WUI1+Q9Z1B7); experiment: Inhibition of p38 phosphorylation in RANKL-induced C57BL/6 mouse BMMC cells at 5 uM pretreated for 6 hrs followed by RANKL stimulation and measured upto 60 mins by Western blot analysis; format: cell-based; conditions: time <= 7.0 hrs
[7] = test system: BMMC; experiment: Inhibition of ERK phosphorylation in RANKL-induced C57BL/6 mouse BMMC cells at 5 uM pretreated for 6 hrs followed by RANKL stimulation and measured upto 60 mins by Western blot analysis; format: cell-based; conditions: time <= 7.0 hrs
[8] = target: T2, Tumor necrosis factor ligand superfamily member 11 (Mus musculus, UniProt O35235); experiment: Binding affinity to mouse RANKL assessed as dissociation constant by SPR analysis
T2 sequence (O35235 whole entry): T1 sequence (whole entry)

[9] = test system: BMMC; experiment: Effect on total ERK protein expression in RANKL-induced C57BL/6 mouse BMMC cells at 5 uM pretreated for 6 hrs followed by RANKL stimulation and measured upto 60 mins by Western blot analysis; format: functional, cell-based; conditions: time <= 7.0 hrs
[10] = Toxicity in OVX osteoporotic C57BL/6 mouse assessed as abnormal behaviors at 10 mg/kg, ip administered every other day for 8 weeks; format: organism-based; conditions: in vivo, 1344 h
[11] = target: c-Jun N-terminal kinase (Mus musculus) (UniProt Q91Y86+Q9WTU6+Q61831); experiment: Inhibition of JNK phosphorylation in RANKL-induced C57BL/6 mouse BMMC cells at 5 uM pretreated for 6 hrs followed by RANKL stimulation and measured upto 60 mins by Western blot analysis; format: cell-based; conditions: time <= 7.0 hrs
Chain of c-Jun N-terminal kinase (Mus musculus) (Q61831 whole entry, looked up): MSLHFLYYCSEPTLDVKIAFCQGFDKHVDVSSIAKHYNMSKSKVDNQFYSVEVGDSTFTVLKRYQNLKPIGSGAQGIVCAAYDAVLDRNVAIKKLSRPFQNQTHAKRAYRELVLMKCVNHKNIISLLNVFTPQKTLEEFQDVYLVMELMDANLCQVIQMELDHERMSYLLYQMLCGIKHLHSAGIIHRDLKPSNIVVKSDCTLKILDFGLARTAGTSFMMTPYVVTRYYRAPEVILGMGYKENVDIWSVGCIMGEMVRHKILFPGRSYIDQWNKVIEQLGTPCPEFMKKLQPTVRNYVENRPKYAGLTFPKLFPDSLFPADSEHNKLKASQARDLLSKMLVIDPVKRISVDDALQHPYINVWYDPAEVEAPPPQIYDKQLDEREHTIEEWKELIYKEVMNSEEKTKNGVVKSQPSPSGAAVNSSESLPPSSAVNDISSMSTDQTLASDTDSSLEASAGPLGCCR
Chain of c-Jun N-terminal kinase (Mus musculus) (Q91Y86 whole entry, looked up): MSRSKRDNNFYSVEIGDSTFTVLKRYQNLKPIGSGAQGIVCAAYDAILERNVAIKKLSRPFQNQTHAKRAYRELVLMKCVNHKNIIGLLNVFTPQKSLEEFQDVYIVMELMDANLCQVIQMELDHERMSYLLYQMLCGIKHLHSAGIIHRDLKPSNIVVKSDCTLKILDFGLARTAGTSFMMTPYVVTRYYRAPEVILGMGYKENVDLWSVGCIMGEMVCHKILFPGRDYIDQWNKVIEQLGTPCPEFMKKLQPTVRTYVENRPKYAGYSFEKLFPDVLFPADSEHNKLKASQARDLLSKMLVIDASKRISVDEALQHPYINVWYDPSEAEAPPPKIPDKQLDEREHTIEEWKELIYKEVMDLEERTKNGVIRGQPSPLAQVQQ
Chain of c-Jun N-terminal kinase (Mus musculus) (Q9WTU6 whole entry, looked up): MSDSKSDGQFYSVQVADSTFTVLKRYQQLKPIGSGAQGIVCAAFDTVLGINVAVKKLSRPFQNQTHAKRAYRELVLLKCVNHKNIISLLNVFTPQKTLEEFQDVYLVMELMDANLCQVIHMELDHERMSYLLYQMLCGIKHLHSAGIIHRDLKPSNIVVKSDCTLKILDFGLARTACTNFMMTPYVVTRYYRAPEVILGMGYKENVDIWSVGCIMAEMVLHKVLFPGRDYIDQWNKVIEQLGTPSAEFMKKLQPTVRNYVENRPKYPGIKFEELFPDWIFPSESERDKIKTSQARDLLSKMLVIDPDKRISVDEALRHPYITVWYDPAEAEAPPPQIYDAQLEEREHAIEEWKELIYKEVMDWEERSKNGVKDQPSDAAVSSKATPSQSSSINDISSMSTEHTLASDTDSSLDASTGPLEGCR

[12] = test system: Mus musculus; experiment: Anti-osteoporosis activity in ovariectomized C57BL/6 mouse assessed as reduction in bone loss by measuring increase in bone volume/total bone volume (BV/TV) at 10 mg/kg, ip administered every other day for 8 weeks by micro-CT analysis; format: functional, organism-based
[13] = test system: BMMC; experiment: Anti-osteoclastogenesis activity in M-CSF/RANKL-induced C57BL/6 mouse BMMC cells assessed as downregulation of cathepsin K gene expression incubated for 5 days by qRT-PCR analysis; format: functional, cell-based; conditions: dose 0-10 µM, time 5.0 day
[14] = target: Transcription factor p65 (Mus musculus) (UniProt Q04207); experiment: Inhibition of p65 phosphorylation in RANKL-induced C57BL/6 mouse BMMC cells at 5 uM pretreated for 6 hrs followed by RANKL stimulation and measured upto 60 mins by Western blot analysis; format: cell-based; conditions: time <= 7.0 hrs
Chain of Transcription factor p65 (Mus musculus) (Q04207 whole entry): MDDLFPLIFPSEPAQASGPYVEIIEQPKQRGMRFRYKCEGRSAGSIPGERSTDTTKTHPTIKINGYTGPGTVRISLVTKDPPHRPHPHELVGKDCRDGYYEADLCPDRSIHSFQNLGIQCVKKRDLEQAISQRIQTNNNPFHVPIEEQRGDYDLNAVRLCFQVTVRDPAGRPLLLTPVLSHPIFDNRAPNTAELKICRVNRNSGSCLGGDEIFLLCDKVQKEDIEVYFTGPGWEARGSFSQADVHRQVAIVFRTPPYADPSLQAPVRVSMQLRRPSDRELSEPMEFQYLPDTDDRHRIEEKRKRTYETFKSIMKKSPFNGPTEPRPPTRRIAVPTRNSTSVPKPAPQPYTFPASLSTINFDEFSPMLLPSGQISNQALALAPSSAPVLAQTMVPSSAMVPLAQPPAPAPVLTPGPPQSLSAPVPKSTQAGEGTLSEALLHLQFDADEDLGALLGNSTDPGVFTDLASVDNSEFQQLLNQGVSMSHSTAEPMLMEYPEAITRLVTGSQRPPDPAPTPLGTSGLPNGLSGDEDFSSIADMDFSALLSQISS

[15] = test system: MC3T3-E1; experiment: Cytotoxicity against mouse MC3T3-e1 cells assessed as reduction in cell viability at 2.5 to 10 uM measured after 7 days by MTT assay; format: toxicity, cell-based; conditions: mc3t3-e1, 168 h, dose 2.5-10 µM, time 7 day
[16] = test system: MC3T3-E1; experiment: Induction of osteoblast differentiation in mouse MC3T3-E1 cells assessed as bone formation by measuring increase in calcium deposition measured after 21 days by Alizarin red S staining based inverted microscopic analysis; format: functional, cell-based; conditions: dose 2.5-10 µM, time 21.0 day
[17] = Toxicity in OVX osteoporotic C57BL/6 mouse assessed as effect on size and surface gloss of lung at 10 mg/kg, ip administered every other day for 8 weeks by H and E staining based analysis; format: organism-based; conditions: in vivo, 1344 h
[18] = Toxicity in OVX osteoporotic C57BL/6 mouse assessed as body weight loss at 10 mg/kg, ip administered every other day for 8 weeks and measured every week; format: organism-based; conditions: in vivo, 1344 h
[19] = test system: BMMC; experiment: Anti-osteoclastogenesis activity in M-CSF/RANKL-induced C57BL/6 mouse BMMC cells assessed as downregulation of NFATc1 gene expression incubated for 5 days by qRT-PCR analysis; format: functional, cell-based; conditions: dose 0-10 µM, time 5.0 day
[20] = test system: BMMC; experiment: Cytotoxicity against C57BL/6 mouse BMMC cells assessed as reduction in cell viability at 30 uM incubated for 48 hrs by MTT assay; format: toxicity, cell-based

With `CC(C)(OCC(F)(F)F)C([Se]c1ccccc1)C(=O)Nc1ccncc1` (stereo not given) the Activity [1] was “Non-Toxic”, the Activity [2] was “Active” and the Activity [3] was “Active”. For the same compound, the Activity [4] was “Active”, the Activity [5] was “Dose-Dependent Effect” and the inhibition [6] was “Active”. For the same compound, the inhibition [7] was “Active”, the pKd [8] was 3.57 and the Activity [9] was “inactive”. The Activity [10] was “Non-Toxic”, the inhibition [11] was “Active” and the Activity [12] was “Active”. For the same compound, the Activity [13] was “Dose-Dependent Effect”, the inhibition [14] was “Active” and the Activity [15] was “Non-Toxic”. The Activity [16] was “Dose-Dependent Effect”, the Activity [17] was “Non-Toxic” and the Activity [18] was “Non-Toxic”. For the same compound, the Activity [19] was “Dose-Dependent Effect” and the Activity [20] was “Non-Toxic”.
